We go through 38 molecules from patent US9573887B2, “Naphthalene derivative” (Daito Chemix Corporation, priority 2010, dated 2017).

Counter-ions that a name gives are not always drawn.

The target of the assay is T1, Mouse VCP (Mus musculus, UniProt Q01853).
T1 construct: histidine tag (N); made in house; host or cells: Sf-9 insect cells (baculovirus vector pVL1392)
T1 sequence (Q01853 whole entry): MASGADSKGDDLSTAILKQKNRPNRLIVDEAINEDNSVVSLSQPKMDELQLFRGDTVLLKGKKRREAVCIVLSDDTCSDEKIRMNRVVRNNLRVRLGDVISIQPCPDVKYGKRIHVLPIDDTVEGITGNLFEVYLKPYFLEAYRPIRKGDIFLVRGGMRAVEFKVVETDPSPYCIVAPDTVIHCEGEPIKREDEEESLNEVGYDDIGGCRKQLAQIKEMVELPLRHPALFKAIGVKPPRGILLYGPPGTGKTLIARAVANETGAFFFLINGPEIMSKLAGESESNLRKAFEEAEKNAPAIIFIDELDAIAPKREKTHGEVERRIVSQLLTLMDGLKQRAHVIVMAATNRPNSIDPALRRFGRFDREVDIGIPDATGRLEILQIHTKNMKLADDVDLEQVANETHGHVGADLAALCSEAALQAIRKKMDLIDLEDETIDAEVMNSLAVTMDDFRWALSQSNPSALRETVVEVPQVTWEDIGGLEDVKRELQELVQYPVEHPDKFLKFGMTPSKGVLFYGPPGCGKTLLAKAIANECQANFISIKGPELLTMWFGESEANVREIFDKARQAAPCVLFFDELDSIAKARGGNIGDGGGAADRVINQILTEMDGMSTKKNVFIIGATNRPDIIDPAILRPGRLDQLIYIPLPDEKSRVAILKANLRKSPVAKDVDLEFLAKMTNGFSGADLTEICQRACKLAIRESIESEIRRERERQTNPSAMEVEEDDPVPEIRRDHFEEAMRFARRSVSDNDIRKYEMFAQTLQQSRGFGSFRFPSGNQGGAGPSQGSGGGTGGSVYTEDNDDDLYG
The assay is described as follows: ATPase activity of purified His-tagged VCP, [γ-32P]ATP, liberated phosphate by liquid scintillation. The format is biochemical. Conditions: compounds of Examples; ATPase inhibitory activity; 500 ng VCP, 100 μM ATP, 37° C., 10 minutes. The gist of the method:
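N-terminally His-tagged mouse VCP, expressed in Sf-9 cells and nickel-purified, was incubated (500 ng) with 100 μM [γ-32P]ATP and test substance at various concentrations in pH 7.4 HEPES/KCl/MgCl2/DTT buffer, 37° C, 10 min. After TCA stop, released phosphate was molybdate-extracted into organic phase and scintillation-counted. IC50 fitted from concentration-response.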
In the case of `Nc1c(/N=N/c2ccc(-c3c(OCc4cccnc4)ccc4c3sc3ccccc34)nc2)cc(S(=O)(=O)O)c2ccccc12` [Example 80, 4-amino-3-{6-″3-(pyridine-3-ylmethoxy)dibenzothiophene-4-yl]pyridine-3-ylazo}naphthalene-1-sulfonic acid sodium salt], the IC50 came out at 0.329 µM.

Take `Nc1c(/N=N/c2ccc(-c3c(OCCCNC(=O)c4cccnc4Cl)ccc4c3sc3ccccc34)nc2)cc(S(=O)(=O)O)c2ccccc12` [Example 81, 4-amino-3-[6-(3-{3-[(2-chloropyridine-3-carbonyl)amino]propoxy}dibenzothiophene-4-yl)pyridine-3-ylazo]naphthalene-1-sulfonic acid sodium salt]: the IC50 came to 0.207 µM.

Regarding `Nc1c(/N=N/c2ccc(-c3c(OCCCO)ccc4c3sc3ccccc34)nc2)cc(S(=O)(=O)O)c2ccccc12` [Example 82, 4-amino-3-{6-[3-(3-hydroxypropoxy)dibenzothiophene-4-yl]pyridine-3-ylazo}naphthalene-1-sulfonic acid sodium salt], the IC50 is 0.289 µM.

Take `Nc1c(/N=N/c2ccc(-c3cccc4cccnc34)nc2)cc(S(=O)(=O)O)c2ccccc12` [Example 83, 4-amino-3-(6-quinoline-8-ylpyridine-3-ylazo)naphthalene-1-sulfonic acid sodium salt]: the IC50 is 0.35 µM.

For `Cc1ccc2cccc(-c3ccc(/N=N/c4cc(S(=O)(=O)O)c5ccccc5c4N)cn3)c2n1` [Example 84, 4-amino-3-[6-(2-methylquinoline-8-yl)pyridine-3-ylazo]naphthalene-1-sulfonic acid sodium salt], the half-inhibitory concentration (IC50) was determined as 0.567 µM.

Turning to `Cc1cc(/N=N/c2cc(S(=O)(=O)O)c3ccccc3c2N)cnc1-c1cccc2c1sc1ccccc12` [Example 85, 4-amino-3-(6-dibenzothiophene-4-yl-5-methylpyridine-3-ylazo)naphthalene-1-sulfonic acid sodium salt], the IC50 came out at 1.05 µM.

For `Cc1cc(/N=N/c2cc(S(=O)(=O)O)c3ccccc3c2N)cnc1-c1ccccc1-c1ccccc1` [Example 86, 4-amino-3-(6-biphenyl-2-yl-5-methylpyridine-3-ylazo)naphthalene-1-sulfonic acid sodium salt], the IC50 was 0.552 µM.

Consider `Nc1c(/N=N/c2cnc(Cl)c(-c3ccccc3)c2)cc(S(=O)(=O)O)c2ccccc12` [Example 88, 4-amino-3-(6-chloro-5-phenylpyridine-3-ylazo)naphthalene-1-sulfonic acid sodium salt], for which the IC50 stood at 0.348 µM.

Take `Nc1c(/N=N/c2cnc(-c3ccccc3)c(-c3ccccc3)c2)cc(S(=O)(=O)O)c2ccccc12` [Example 89, 4-amino-3-(5,6-diphenylpyridine-3-ylazo)naphthalene-1-sulfonic acid sodium salt]: the IC50 worked out at 0.501 µM.

Take `Cc1cccc(C)c1-c1ccc(/N=N/c2cc(S(=O)(=O)O)c3ccccc3c2N)cn1` [Example 90, 4-amino-3-[6-(2,6-dimethylphenyl)pyridine-3-ylazo]naphthalene-1-sulfonic acid sodium salt]: the 50% inhibitory concentration (IC50) came out at 0.112 µM.

For the molecule `Cc1cc(C=O)c(OC(C)C)c(-c2ccc(/N=N/c3cc(S(=O)(=O)O)c4ccccc4c3N)cn2)c1` [Example 91, 4-amino-3-[6-(3-formyl-2-isopropoxy-5-methylphenyl)pyridine-3-ylazo]naphthalene-1-sulfonic acid sodium salt], the IC50 amounted to 0.212 µM.

As to `CCCCOc1c(C=O)cc(C)cc1-c1ccc(/N=N/c2cc(S(=O)(=O)O)c3ccccc3c2N)cn1` [Example 92, 4-amino-3-[6-(3-formyl-2-butoxy-5-methylphenyl)pyridine-3-ylazo]naphthalene-1-sulfonic acid sodium salt], the IC50 was 0.161 µM.

Consider `Nc1c(/N=N/c2ccccc2)cc(S(=O)(=O)O)c2ccccc12` [Example 93, 4-amino-3-phenylazonaphthalene-1-sulfonic acid sodium salt], for which the IC50 is 0.762 µM.

Turning to `Nc1c(/N=N/c2ccccc2F)cc(S(=O)(=O)O)c2ccccc12` [Example 94, 4-amino-3-(2-fluorophenylazo)naphthalene-1-sulfonic acid sodium salt], the IC50 turned out to be 1.11 µM.

On to `Nc1c(/N=N/c2ccc(C(F)(F)F)cc2)cc(S(=O)(=O)O)c2ccccc12` [Example 95, 4-amino-3-(4-trifluoromethylphenylazo)naphthalene-1-sulfonic acid sodium salt], for which the IC50 worked out at 0.393 µM.

Consider `Nc1c(/N=N/c2cccc([N+](=O)[O-])c2)cc(S(=O)(=O)O)c2ccccc12` [Example 96, 4-amino-3-(3-nitrophenylazo)naphthalene-1-sulfonic acid sodium salt], for which the IC50 turned out to be 1.63 µM.

As for `Nc1c(/N=N/c2ccc(NC(=O)c3cccs3)cc2)cc(S(=O)(=O)O)c2ccccc12` [Example 97, 4-amino-3-[4-[(2-thienylcarbonyl)amino]phenylazo]-1-naphthalenesulfonic acid sodium salt], the IC50 was 0.804 µM.

As for `Nc1c(/N=N/c2ccccc2Cl)cc(S(=O)(=O)O)c2ccccc12` [Example 98, 4-amino-3-(2-chlorophenylazo)naphthalene-1-sulfonic acid sodium salt], the half-inhibitory concentration (IC50) was 0.591 µM.

For `Nc1c(/N=N/c2cccc(Cl)c2)cc(S(=O)(=O)O)c2ccccc12` [Example 99, 4-amino-3-(3-chlorophenylazo)naphthalene-1-sulfonic acid sodium salt], the IC50 was 1.39 µM.

With `Nc1c(/N=N/c2ccc(Cl)cc2)cc(S(=O)(=O)O)c2ccccc12` [Example 100, 4-amino-3-(4-chlorophenylazo)naphthalene-1-sulfonic acid sodium salt], the IC50 was 0.408 µM.

Take `Nc1c(/N=N/c2cccc(F)c2)cc(S(=O)(=O)O)c2ccccc12` [Example 101, 4-amino-3-(3-fluorophenylazo)naphthalene-1-sulfonic acid sodium salt]: the half-inhibitory concentration (IC50) is 1.76 µM.

In the case of `Nc1c(/N=N/c2ccc(F)cc2)cc(S(=O)(=O)O)c2ccccc12` [Example 102, 4-amino-3-(4-fluorophenylazo)naphthalene-1-sulfonic acid sodium salt], the IC50 was 0.904 µM.

Turning to `CCOC(=O)c1ccc(/N=N/c2cc(S(=O)(=O)O)c3ccccc3c2N)cc1` [Example 103, ethyl 4-(1-amino-4-sulfonaphthalene-2-ylazo)benzoate sodium salt], the IC50 was determined as 0.887 µM.

For the molecule `Nc1c(/N=N/c2ccc(C(=O)O)cc2)cc(S(=O)(=O)O)c2ccccc12` [Example 104, 4-(1-amino-4-sulfonaphthalene-2-ylazo)benzoic acid disodium salt], the IC50 amounted to 2.07 µM.

Turning to `N#Cc1ccccc1/N=N/c1cc(S(=O)(=O)O)c2ccccc2c1N` [Example 105, 4-amino-3-(2-cyanophenylazo)naphthalene-1-sulfonic acid sodium salt], the IC50 was 0.238 µM.

Regarding `N#Cc1cccc(/N=N/c2cc(S(=O)(=O)O)c3ccccc3c2N)c1` [Example 106, 4-amino-3-(3-cyanophenylazo)naphthalene-1-sulfonic acid sodium salt], the concentration for half-maximal inhibition (IC50) is 2.26 µM.

For `N#Cc1ccc(/N=N/c2cc(S(=O)(=O)O)c3ccccc3c2N)cc1` [Example 107, 4-amino-3-(4-cyanophenylazo)naphthalene-1-sulfonic acid sodium salt], the IC50 worked out at 0.54 µM.

Consider `Nc1c(/N=N/c2ccccc2Br)cc(S(=O)(=O)O)c2ccccc12` [Example 108, 4-amino-3-(2-bromophenylazo)naphthalene-1-sulfonic acid sodium salt], for which the IC50 amounted to 0.288 µM.

For `Nc1c(/N=N/c2cccc(Br)c2)cc(S(=O)(=O)O)c2ccccc12` [Example 109, 4-amino-3-(3-bromophenylazo)naphthalene-1-sulfonic acid sodium salt], the IC50 amounted to 0.856 µM.

Take `Nc1c(/N=N/c2ccc(Br)cc2)cc(S(=O)(=O)O)c2ccccc12` [Example 110, 4-amino-3-(4-bromophenylazo)naphthalene-1-sulfonic acid sodium salt]: the IC50 is 0.226 µM.

`Nc1c(/N=N/c2ccc(Cl)cc2Cl)cc(S(=O)(=O)O)c2ccccc12` [Example 111, 4-amino-3-(2,4-dichlorophenylazo)naphthalene-1-sulfonic acid sodium salt]: the IC50 came to 0.244 µM.

As for `Nc1c(/N=N/c2ccc(Cl)c(Cl)c2)cc(S(=O)(=O)O)c2ccccc12` [Example 112, 4-amino-3-(3,4-dichlorophenylazo)naphthalene-1-sulfonic acid sodium salt], the IC50 was 0.526 µM.

Turning to `Nc1c(/N=N/c2ccc(Br)cc2Br)cc(S(=O)(=O)O)c2ccccc12` [Example 113, 4-amino-3-(2,4-dibromophenylazo)naphthalene-1-sulfonic acid sodium salt], the IC50 came to 0.266 µM.

Regarding `Nc1c(/N=N/c2c(Br)cc(Br)cc2Br)cc(S(=O)(=O)O)c2ccccc12` [Example 114, 4-amino-3-(2,4,6-tribromophenylazo)naphthalene-1-sulfonic acid sodium salt], the 50% inhibitory concentration (IC50) was 0.099 µM.

As for `Nc1c(/N=N/c2c(Cl)cc(Cl)cc2Cl)cc(S(=O)(=O)O)c2ccccc12` [Example 115, 4-amino-3-(2,4,6-trichlorophenylazo)naphthalene-1-sulfonic acid sodium salt], the IC50 came to 0.297 µM.

`Nc1c(/N=N/c2ccc(F)cc2F)cc(S(=O)(=O)O)c2ccccc12` [Example 116, 4-amino-3-(2,4-difluorophenylazo)naphthalene-1-sulfonic acid sodium salt]: the IC50 amounted to 1.23 µM.

With `Nc1c(/N=N/c2ccc(Cl)cc2Br)cc(S(=O)(=O)O)c2ccccc12` [Example 117, 4-amino-3-(2-bromo-4-chlorophenylazo)naphthalene-1-sulfonic acid sodium salt], the IC50 came out at 0.23 µM.

As to `N#Cc1cc(Cl)ccc1/N=N/c1cc(S(=O)(=O)O)c2ccccc2c1N` [Example 118, 4-amino-3-(4-chloro-2-cyanophenylazo)naphthalene-1-sulfonic acid sodium salt], the IC50 stood at 0.105 µM.
